Measured values from ChEMBL document CHEMBL1138430, “Novel tetrahydroisoquinolines are histamine H3 antagonists and serotonin reuptake inhibitors” (Bioorg Med Chem Lett, 2007).
Activity calls are given as the source filed them.

Legend:
[1] = target: Beta-1 adrenergic receptor (Homo sapiens) (UniProt P08588); assay: Binding affinity at adrenergic beta-1 receptor at 1 uM
[2] = target: D(2) dopamine receptor (Homo sapiens) (UniProt P14416); assay: Binding affinity at dopamine D2 receptor at 1 uM
[3] = target: D(1A) dopamine receptor (Homo sapiens) (UniProt P21728); assay: Binding affinity at dopamine D1 receptor at 1 uM
Sequence of D(1A) dopamine receptor (Homo sapiens) (P21728 whole entry): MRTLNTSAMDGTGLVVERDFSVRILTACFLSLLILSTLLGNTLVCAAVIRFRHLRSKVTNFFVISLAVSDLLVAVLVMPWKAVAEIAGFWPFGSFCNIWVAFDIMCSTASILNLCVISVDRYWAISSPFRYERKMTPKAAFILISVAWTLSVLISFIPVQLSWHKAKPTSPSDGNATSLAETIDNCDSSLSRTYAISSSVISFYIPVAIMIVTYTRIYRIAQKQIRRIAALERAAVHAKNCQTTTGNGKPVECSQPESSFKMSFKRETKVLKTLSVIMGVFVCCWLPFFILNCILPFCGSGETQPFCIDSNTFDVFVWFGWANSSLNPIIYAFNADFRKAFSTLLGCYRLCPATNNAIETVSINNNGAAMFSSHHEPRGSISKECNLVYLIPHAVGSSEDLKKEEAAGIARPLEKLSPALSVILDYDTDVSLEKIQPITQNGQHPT

[4] = target: Neurotensin receptor type 1 (Homo sapiens) (UniProt P30989); assay: Binding affinity at NT1 receptor at 1 uM
Sequence of Neurotensin receptor type 1 (Homo sapiens) (P30989 whole entry): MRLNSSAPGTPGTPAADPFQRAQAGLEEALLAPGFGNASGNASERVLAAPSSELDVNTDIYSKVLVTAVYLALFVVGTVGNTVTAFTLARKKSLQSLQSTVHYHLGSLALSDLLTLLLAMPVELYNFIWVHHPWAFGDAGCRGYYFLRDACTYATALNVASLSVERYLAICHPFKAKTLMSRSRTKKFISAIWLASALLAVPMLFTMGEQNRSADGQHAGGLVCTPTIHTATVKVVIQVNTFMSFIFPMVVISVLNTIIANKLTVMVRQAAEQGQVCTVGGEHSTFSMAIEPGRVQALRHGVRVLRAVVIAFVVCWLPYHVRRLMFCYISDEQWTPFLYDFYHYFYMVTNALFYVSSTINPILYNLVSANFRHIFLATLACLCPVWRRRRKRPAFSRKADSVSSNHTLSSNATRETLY

[5] = target: T1, Adenosine receptor A1 (Homo sapiens) (UniProt P30542); assay: Binding affinity at adenosine A1 receptor at 1 uM
T1 sequence (whole entry): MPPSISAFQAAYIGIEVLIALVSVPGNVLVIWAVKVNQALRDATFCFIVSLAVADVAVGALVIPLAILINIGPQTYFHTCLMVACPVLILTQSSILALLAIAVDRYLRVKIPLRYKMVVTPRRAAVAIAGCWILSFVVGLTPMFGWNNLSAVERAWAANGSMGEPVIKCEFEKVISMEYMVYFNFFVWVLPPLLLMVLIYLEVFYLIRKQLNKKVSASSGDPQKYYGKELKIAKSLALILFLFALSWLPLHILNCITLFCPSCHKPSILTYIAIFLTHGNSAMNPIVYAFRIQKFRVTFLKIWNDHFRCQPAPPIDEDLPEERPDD

[6] = target: Delta-type opioid receptor (Homo sapiens) (UniProt P41143); assay: Binding affinity at DOP receptor at 1 uM
Sequence of Delta-type opioid receptor (Homo sapiens) (P41143 whole entry): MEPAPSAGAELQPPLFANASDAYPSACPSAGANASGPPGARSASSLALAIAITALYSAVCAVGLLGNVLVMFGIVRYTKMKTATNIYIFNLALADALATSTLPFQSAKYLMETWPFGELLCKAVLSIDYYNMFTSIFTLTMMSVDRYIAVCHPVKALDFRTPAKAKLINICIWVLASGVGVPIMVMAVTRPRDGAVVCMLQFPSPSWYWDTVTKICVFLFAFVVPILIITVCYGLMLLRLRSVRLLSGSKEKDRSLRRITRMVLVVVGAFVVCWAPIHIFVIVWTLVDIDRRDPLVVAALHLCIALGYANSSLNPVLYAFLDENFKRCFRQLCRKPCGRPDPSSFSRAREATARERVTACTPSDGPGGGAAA

[7] = target: Adenosine receptor A2a (Homo sapiens) (UniProt P29274); assay: Binding affinity at adenosine A2A receptor at 1 uM
Sequence of Adenosine receptor A2a (Homo sapiens) (P29274 whole entry): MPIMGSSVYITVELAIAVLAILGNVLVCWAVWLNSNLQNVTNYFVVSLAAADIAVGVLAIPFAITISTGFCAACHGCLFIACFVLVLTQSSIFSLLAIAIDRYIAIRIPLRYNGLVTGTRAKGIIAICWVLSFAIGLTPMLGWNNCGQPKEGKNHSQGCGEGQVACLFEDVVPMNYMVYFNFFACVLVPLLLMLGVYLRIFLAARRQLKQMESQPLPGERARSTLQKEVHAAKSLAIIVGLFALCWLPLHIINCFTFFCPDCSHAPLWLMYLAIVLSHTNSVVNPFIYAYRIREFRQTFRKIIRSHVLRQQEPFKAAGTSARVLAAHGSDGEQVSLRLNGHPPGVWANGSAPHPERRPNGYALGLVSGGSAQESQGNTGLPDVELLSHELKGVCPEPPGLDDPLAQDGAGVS

[8] = target: 5-hydroxytryptamine receptor 6 (Homo sapiens) (UniProt P50406); assay: Binding affinity at 5HT6 receptor at 1 uM
Sequence of 5-hydroxytryptamine receptor 6 (Homo sapiens) (P50406 whole entry): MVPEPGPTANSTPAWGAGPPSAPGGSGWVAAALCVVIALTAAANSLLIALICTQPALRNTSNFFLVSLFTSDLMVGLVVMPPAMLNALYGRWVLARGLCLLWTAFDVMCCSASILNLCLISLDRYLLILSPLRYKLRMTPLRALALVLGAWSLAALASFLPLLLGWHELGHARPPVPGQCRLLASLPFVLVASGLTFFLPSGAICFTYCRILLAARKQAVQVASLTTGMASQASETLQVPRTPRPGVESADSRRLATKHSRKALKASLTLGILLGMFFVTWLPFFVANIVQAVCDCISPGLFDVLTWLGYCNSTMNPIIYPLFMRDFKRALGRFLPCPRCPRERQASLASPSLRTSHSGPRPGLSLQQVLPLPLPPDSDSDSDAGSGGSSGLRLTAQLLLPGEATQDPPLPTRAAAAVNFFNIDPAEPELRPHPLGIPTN

Homo sapiens [9] = species on record: Homo sapiens; assay: Binding affinity at ML1 receptor at 1 uM
Homo sapiens [10] = species on record: Homo sapiens; assay: Binding affinity for chloride channel at 1 uM
[11] = target: 5-hydroxytryptamine receptor 7 (Homo sapiens) (UniProt P34969); assay: Binding affinity at 5HT7 receptor at 1 uM
Sequence of 5-hydroxytryptamine receptor 7 (Homo sapiens) (P34969 whole entry): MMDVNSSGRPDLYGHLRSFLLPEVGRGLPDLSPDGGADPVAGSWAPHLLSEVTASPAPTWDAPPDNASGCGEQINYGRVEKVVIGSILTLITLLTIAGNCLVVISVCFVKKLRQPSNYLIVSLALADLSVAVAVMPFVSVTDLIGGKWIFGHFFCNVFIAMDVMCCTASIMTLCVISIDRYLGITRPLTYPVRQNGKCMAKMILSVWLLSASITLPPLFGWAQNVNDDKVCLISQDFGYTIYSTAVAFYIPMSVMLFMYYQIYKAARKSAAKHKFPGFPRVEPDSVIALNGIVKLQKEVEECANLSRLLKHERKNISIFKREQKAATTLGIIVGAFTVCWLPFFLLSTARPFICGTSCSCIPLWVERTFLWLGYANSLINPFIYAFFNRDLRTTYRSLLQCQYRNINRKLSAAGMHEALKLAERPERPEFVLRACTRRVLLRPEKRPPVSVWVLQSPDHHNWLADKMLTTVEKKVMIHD

[12] = target: Vasopressin V1a receptor (Homo sapiens) (UniProt P37288); assay: Binding affinity at vasopressin V1a receptor at 1 uM
Sequence of Vasopressin V1a receptor (Homo sapiens) (P37288 whole entry, looked up): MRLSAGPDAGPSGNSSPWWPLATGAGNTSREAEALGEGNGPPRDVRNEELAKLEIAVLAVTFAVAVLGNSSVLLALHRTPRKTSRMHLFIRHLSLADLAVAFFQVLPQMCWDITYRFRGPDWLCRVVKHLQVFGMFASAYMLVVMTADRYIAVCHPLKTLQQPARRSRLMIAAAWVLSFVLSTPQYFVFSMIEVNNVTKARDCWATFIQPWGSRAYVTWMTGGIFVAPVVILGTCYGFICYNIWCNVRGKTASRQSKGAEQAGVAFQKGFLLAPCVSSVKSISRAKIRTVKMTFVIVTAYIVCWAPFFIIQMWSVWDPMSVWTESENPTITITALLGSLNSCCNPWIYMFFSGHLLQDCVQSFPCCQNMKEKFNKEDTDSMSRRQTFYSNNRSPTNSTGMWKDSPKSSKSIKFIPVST

[13] = target: T2, Galanin receptor type 2 (Homo sapiens) (UniProt O43603); assay: Binding affinity at galanin 2 receptor at 1 uM
T2 sequence (whole entry): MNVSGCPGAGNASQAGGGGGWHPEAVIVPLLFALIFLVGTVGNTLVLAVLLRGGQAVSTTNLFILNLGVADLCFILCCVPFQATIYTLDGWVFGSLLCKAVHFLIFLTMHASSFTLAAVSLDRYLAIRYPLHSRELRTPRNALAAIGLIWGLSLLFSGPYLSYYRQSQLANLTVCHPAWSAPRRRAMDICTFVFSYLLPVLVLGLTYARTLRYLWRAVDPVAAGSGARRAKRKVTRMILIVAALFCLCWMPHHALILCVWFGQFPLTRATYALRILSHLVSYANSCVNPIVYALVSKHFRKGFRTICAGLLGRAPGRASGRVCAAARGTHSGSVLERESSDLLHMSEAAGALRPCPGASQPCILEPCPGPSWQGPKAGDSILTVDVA

Homo sapiens [14] = species on record: Homo sapiens; assay: Binding affinity at somatostatin receptor at 1 uM
[15] = target: T3, 5-hydroxytryptamine receptor 1A (Homo sapiens) (UniProt P08908); assay: Binding affinity at 5HT1A receptor at 1 uM
T3 sequence (whole entry): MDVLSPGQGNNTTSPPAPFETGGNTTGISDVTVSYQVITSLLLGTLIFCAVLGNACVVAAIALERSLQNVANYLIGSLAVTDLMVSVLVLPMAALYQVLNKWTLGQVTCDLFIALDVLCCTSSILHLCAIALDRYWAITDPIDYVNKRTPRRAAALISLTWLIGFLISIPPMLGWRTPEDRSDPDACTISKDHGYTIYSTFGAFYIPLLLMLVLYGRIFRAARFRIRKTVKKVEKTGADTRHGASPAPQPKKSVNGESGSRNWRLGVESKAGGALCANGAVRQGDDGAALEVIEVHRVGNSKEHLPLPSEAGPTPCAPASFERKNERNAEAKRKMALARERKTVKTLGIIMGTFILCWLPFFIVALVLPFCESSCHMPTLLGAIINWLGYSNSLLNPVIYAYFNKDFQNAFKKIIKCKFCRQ

[16] = target: T4, Alpha-1A adrenergic receptor (Homo sapiens) (UniProt P35348); assay: Binding affinity at adrenergic alpha-1 receptor at 1 uM
T4 sequence (whole entry): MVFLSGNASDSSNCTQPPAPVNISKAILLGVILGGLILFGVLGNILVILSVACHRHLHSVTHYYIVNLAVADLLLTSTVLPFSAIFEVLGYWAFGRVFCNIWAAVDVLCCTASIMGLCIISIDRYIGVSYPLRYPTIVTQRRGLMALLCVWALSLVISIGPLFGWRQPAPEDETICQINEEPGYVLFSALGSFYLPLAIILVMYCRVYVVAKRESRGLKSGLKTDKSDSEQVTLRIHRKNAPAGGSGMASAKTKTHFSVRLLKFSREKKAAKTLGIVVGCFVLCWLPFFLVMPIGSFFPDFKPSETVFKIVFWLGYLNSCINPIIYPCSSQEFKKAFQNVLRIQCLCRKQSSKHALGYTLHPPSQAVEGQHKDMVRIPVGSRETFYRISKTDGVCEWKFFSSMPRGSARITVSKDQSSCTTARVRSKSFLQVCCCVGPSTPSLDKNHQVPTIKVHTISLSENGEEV

[17] = target: T5, Cholecystokinin receptor type A (Homo sapiens) (UniProt P32238); assay: Binding affinity at CCKA receptor at 1 uM
T5 sequence (whole entry): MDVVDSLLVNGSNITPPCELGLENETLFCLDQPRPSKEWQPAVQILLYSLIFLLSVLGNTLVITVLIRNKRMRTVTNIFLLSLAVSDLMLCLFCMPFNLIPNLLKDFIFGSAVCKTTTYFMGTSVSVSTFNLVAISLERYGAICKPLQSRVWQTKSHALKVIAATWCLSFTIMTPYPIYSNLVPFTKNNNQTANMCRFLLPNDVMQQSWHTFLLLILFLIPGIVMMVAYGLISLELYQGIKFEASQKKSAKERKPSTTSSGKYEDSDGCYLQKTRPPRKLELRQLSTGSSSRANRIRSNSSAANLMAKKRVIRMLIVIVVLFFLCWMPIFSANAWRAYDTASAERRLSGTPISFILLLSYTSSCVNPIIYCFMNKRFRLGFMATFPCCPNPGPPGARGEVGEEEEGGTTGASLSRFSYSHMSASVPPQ

Measured: Activity

Sequence of D(2) dopamine receptor (Homo sapiens) (P14416 whole entry): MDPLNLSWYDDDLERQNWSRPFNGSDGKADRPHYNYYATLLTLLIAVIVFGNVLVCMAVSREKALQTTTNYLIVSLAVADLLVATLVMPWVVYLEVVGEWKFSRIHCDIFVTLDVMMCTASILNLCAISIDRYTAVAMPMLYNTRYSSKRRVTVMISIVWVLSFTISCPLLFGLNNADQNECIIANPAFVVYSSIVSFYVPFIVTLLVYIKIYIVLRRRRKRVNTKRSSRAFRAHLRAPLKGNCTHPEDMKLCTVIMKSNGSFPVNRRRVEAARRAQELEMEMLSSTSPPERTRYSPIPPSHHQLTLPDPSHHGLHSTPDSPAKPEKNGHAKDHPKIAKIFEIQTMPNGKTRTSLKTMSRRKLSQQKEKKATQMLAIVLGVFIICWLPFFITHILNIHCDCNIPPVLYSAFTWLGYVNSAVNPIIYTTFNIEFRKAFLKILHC
Sequence of Beta-1 adrenergic receptor (Homo sapiens) (P08588 whole entry, looked up): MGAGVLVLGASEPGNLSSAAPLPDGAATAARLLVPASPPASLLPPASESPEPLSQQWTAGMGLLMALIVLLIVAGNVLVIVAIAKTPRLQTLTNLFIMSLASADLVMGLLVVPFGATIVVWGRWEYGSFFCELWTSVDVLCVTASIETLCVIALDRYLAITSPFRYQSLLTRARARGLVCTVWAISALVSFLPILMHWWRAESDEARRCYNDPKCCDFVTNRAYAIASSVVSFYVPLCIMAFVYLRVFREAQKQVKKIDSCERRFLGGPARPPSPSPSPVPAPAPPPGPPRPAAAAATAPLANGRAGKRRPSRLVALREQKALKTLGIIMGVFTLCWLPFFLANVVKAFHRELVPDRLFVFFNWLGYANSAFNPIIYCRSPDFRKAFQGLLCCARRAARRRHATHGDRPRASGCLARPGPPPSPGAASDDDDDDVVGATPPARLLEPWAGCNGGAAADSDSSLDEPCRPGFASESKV

COc1ccc([C@@H]2CN(C)Cc3cc(OCCCN4CCOC[C@@H]4C)ccc32)cc1
inactive: all assays above

CSc1ccc(C2CN(C)Cc3cc(OCCCN4CCOCC4)ccc32)cc1 (racemic)
inactive: all assays above

CSc1ccc(C2CN(C)Cc3cc(OCCCN4CCC(F)CC4)ccc32)cc1 (racemic)
inactive: all assays above
